# Test system: Human Umbilical Vein Endothelial cells (VEGF-stimulated HUVEC proliferation)
# Experiment: HUVEC Proliferation Assay (VEGF-stimulated)
# Type: cell-based
# Conditions: VEGF 50 ng/mL, 72 h incubation, CyQuant readout, read-out: inhibited VEGF-stimulated HUVEC proliferation at a level below (IC50)
# Protocol: Human Umbilical Vein Endothelial cells are purchased from Clonetics, Inc., as cryopreserved cells harvested from a pool of donors. These cells, at passage 1, are thawed and expanded in EBM-2 complete medium, until passage 2 or 3. The cells are trypsinized, washed in DMEM+10% FBS+antibiotics, and spun at 1000 rpm for 10 min. Prior to centrifugation of the cells, a small amount is collected for a cell count. After centrifugation, the medium is discarded, and the cells are resuspended in the appropriate volume of DMEM+10% FBS+antibiotics to achieve a concentration of 3×10^5 cells/mL. Another cell count is performed to confirm the cell concentration. The cells are diluted to 3×10^4 cells/mL in DMEM+10% FBS+antibiotics, and 100 μL of cells are added to a 96-well plate. The cells are incubated at 37° C. for 22 h.
# Prior to the completion of the incubation period, compound dilutions are prepared. Five-point, five-fold serial dilutions are prepared in DMSO, at concentrations 400-fold greater than the final concentrations desired. 2.5 μL of each compound dilution are diluted further in a total of 1 mL DMEM+10% FBS+antibiotics (400× dilution). Medium containing 0.25% DMSO is also prepared for the 0 μM compound sample. At the 22-hour timepoint, the medium is removed from the cells, and 100 μL of each compound dilution is added. The cells are incubated at 37° C. for 2-3 h.
# During the compound pre-incubation period, the growth factors are diluted to the appropriate concentrations. Solutions of DMEM+10% FBS+antibiotics, containing either VEGF or bFGF at the following concentrations: 50, 10, 2, 0.4, 0.08, and 0 ng/mL are prepared. For the compound-treated cells, solutions of VEGF at 550 ng/mL or bFGF at 220 ng/mL for 50 ng/mL or 20 ng/mL final concentrations, respectively, are prepared since 10 μL of each will be added to the cells (110 μL final volume). At the appropriate time after adding the compounds, the growth factors are added. VEGF is added to one set of plates, while bFGF is added to another set of plates. For the growth factor control curves, the media on wells B4-G6 of plates 1 and 2 are replaced with media containing VEGF or bFGF at the varying concentrations (50-0 ng/mL). The cells are incubated at 37° C. for an additional 72 h.
# At the completion of the 72 h incubation period, the medium is removed, and the cells are washed twice with PBS. After the second wash with PBS, the plates are tapped gently to remove excess PBS, and the cells are placed at −70° C. for at least 30 min. The cells are thawed and analyzed using the CyQuant fluorescent dye (Molecular Probes C-7026), following the manufacturer's recommendations. The plates are read on a Victor/Wallac 1420 workstation at 485 nm/530 nm (excitation/emission). Raw data are collected and analyzed using a 4-parameter fit equation in XLFit. IC50 values are then determined.
row,SMILES,IC50
1,"CN1CCC(c2cc(NC(=O)c3cccnc3Nc3ccc4cn[nH]c4c3)cc(C(F)(F)F)c2)CC1 [Example 90, 2-(1H-Indazol-6-ylamino)-N-[3-(1-methyl-piperidin-4-yl)-5-trifluoromethyl-phenyl]-nicotinamide]",< 50 nM
2,"CC(C)(C)c1ccc(NC(=O)c2cccnc2Nc2ccc3cn[nH]c3c2)cc1OCC1CCNCC1 [Example 93, N-[4-tert-Butyl-3-(piperidin-4-ylmethoxy)-phenyl]-2-(1H-indazol-6-ylamino)-nicotinamide]",< 50 nM
3,"CC1(C)CNc2cc(NC(=O)c3cccnc3Nc3ccc4cn[nH]c4c3)ccc21 [Example 99, N-(3,3dimethyl-2,3-dihydro-1H-indol-6-yl)-2-(1H-indazol-6-ylamino)-nicotinamide]",< 50 nM
4,"CS(=O)(=O)c1ccc(NC(=O)c2cccnc2Nc2ccc3cn[nH]c3c2)cc1 [Example 46, [2-(1H-Indazol-6-ylamino)(3-pyridyl)]-N-[4-(methylsulfonyl)phenyl]carboxamide]",< 50 nM
5,"CC(C)N1CCC(COc2cc(NC(=O)c3cccnc3Nc3ccc4cn[nH]c4c3)ccc2C(F)(F)C(F)(F)F)CC1 [Example 79, 2-(1H-Indazol-6-ylamino)-N-[3-(1-isopropyl-piperidin-4-ylmethoxy)-4-pentafluoroethyl-phenyl]-nicotinamide]",< 50 nM
6,"CC1(C)CC(=O)Nc2cc(NC(=O)c3cccnc3Nc3ccc4cn[nH]c4c3)ccc21 [Example 575, N-(4,4-Dimethyl-2-oxo-1,2,3,4-tetrahydro-quinolin-7-yl)-2-(1H-indazol-6-ylamino)-nicotinamide]",< 50 nM
7,"O=C(Nc1cc(OCC2CCNCC2)cc(C(F)(F)F)c1)c1cccnc1Nc1ccc2cn[nH]c2c1 [Example 75, 2-(1H-Indazol-6-ylamino)-N-[3-(piperidin-4-ylmethoxy)-5-trifluoromethyl-phenyl]-nicotinamide]",< 50 nM
8,"O=C(Nc1ccc(C(F)(F)F)c(OC[C@H]2CCCN2)c1)c1cccnc1Nc1ccc2cn[nH]c2c1 [Example 85, 2-(1H-Indazol-6-ylamino)-N-[3-(pyrrolidin-2-ylmethoxy)-4-trifluoromethyl-phenyl]-nicotinamide]",< 50 nM
9,"O=C(Nc1ccc(C(F)(F)C(F)(F)F)c(OC[C@H]2CCCN2)c1)c1cccnc1Nc1ccc2cn[nH]c2c1 [Example 84, 2-(1H-Indazol-6-ylamino)-N-[4-pentafluoroethyl-3-(2R-pyrrolidin-2-ylmethoxy)-phenyl]-nicotinamide]",< 50 nM
10,"O=C(Nc1ccc(C(F)(F)C(F)(F)F)c(OC[C@@H]2CCCN2)c1)c1cccnc1Nc1ccc2cn[nH]c2c1 [Example 83, 2-(1H-Indazol-6-ylamino)-N-[4-pentafluoroethyl-3-(2S-pyrrolidin-2-ylmethoxy)-phenyl]-nicotinamide]",< 50 nM
11,"O=C1NCCc2ccc(NC(=O)c3cccnc3Nc3ccc4cn[nH]c4c3)cc21 [Example 27, 2-(1H-Indazol-6-ylamino)-N-(1-oxo-1,2,3,4-tetrahydro-isoguinolin-7-yl)-nicotinamide]",< 50 nM
12,"CC(C)(C)c1ccc(NC(=O)c2cccnc2Nc2ccc3cn[nH]c3c2)cc1NC(=O)CN1CCOCC1 [Example 588, N-(4-(1,1-Dimethyl)-3-((4-morpholinylacetyl)amino)phenyl)-2-(1H-indazol-6-ylamino)-3-pyridinecarboxamide]",< 50 nM
13,"CC(C)c1ccc(NC(=O)c2ccc(F)nc2Nc2ccc3cn[nH]c3c2)cc1 [Example 67, [6-Fluoro-2-(1H-indazol-6-ylamino)(3-pyridyl)]-N-[4-(methylethyl)phenyl]carboxamide]",< 50 nM
14,"CC(C)(C)c1ccc(NC(=O)c2cccnc2Nc2ccc3cn[nH]c3c2)cc1NCCO [Example 115, N-[4-tert-Butyl-3-(2-hydroxy-ethylamino)-phenyl]-2-(1H-indazol-6-ylamino)-nicotinamide]",< 50 nM
15,"CCCN1CCN(c2cc(NC(=O)c3cccnc3Nc3ccc4cn[nH]c4c3)ccc2C(C)(C)C)CC1 [Example 102, N-[4-tert-Butyl-3-(4-propyl-piperazin-1-yl)-phenyl]-2-(1H-indazol-6-ylamino)-nicotinamide]",< 50 nM
16,"O=C(Nc1cc(CN2CCNCC2)cc(C(F)(F)F)c1)c1cccnc1Nc1ccc2cn[nH]c2c1 [Example 125, 2-(1H-Indazol-6-ylamino)-N-(3-piperazin-1-ylmethyl-5-trifluoromethyl-phenyl)-nicotinamide]",< 50 nM
17,"CC(C)c1ccc(NC(=O)c2cccnc2Nc2ccc3cn[nH]c3c2)cc1 [Example 5, 2-(1H-Indazol-6-ylamino)-N-(4-isopropyl-phenyl)nicotinamide]",< 50 nM
18,"CC(=O)N1CC(C)(C)Oc2ccc(NC(=O)c3cccnc3Nc3ccc4cn[nH]c4c3)cc21 [Example 89, N-(4-Acetyl-2,2-dimethyl-3,4-dihydro-2H-benzo[1,4]oxazin-6-yl)-2-(1H-indazol-6-ylamino)-nicotinamide]",< 50 nM
19,"COc1ccc(C(C)(C)C)cc1NC(=O)c1cccnc1Nc1ccc2cn[nH]c2c1 [Example 25, N-[5-(tert-Butyl)-2-methoxyphenyl][2-(1H-indazol-6-ylamino)(3-pyridyl)]carboxamide]",< 50 nM
20,"CC(C)(C)c1cccc(NC(=O)c2cccnc2Nc2ccc3cn[nH]c3c2)c1 [Example 10, N-[3-(tert-Butyl)phenyl][2-(1H-indazol-6-ylamino)(3-pyridyl)]carboxamide]",< 50 nM
21,"O=C(Nc1ccc(C(F)(F)C(F)(F)F)c(OCCN2CCCCC2)c1)c1cccnc1Nc1ccc2cn[nH]c2c1 [Example 81, 2-(1H-Indazol-6-ylamino)-N-[4-pentafluoroethyl-3-(2-piperidin-1-yl-ethoxy)-phenyl]-nicotinamide]",< 50 nM
22,"O=C(Nc1ccc(C(F)(F)C(F)(F)F)c(OC[C@H](O)CN2CCCC2)c1)c1cccnc1Nc1ccc2cn[nH]c2c1 [Example 80, N-[3-(2-Hydroxy-3-pyrrolidin-1-yl-propoxy)-4-pentafluoroethyl-phenyl]-2-(1H-indazol-6-ylamino)-nicotinamide]",< 50 nM
23,"O=C(Nc1ccc(C(F)(F)C(F)(F)F)cc1)c1cccnc1Nc1ccc2cn[nH]c2c1 [Example 123, 2-(1H-Indazol-6-ylamino)-N-(4-pentafluoroethyl-phenyl)-nicotinamide]",< 50 nM
24,"O=C(Nc1ccc(C(OCCN2CCCCC2)(C(F)(F)F)C(F)(F)F)cc1)c1cccnc1Nc1ccc2cn[nH]c2c1 [Example 65, [2-(1H-Indazol-6-ylamino)(3-pyridyl)]-N-{4-[2,2,2-trifluoro-1-(2-piperidylethoxy)-1-(trifluoromethyl)ethyl]phenyl}carboxamide]",< 50 nM
25,"O=C(Nc1cc(CCCN2CCCCC2)cc(C(F)(F)F)c1)c1cccnc1Nc1ccc2cn[nH]c2c1 [Example 71, 2-(1H-Indazol-6-ylamino)-N-[3-(3-piperidin-1-yl-propyl)-5-trifluoromethyl-phenyl]-nicotinamide]",< 50 nM
26,"CN1CCC[C@H]1COc1cc(NC(=O)c2cccnc2Nc2ccc3cn[nH]c3c2)cc(C(F)(F)F)c1 [Example 104, 2-(1H-Indazol-6-ylamino)-N-[3-(1-methylpyrrolidin-2-ylmethoxy)-5-trifluoromethyl-phenyl]-nicotinamide]",< 50 nM
27,"CC(C)(C)c1ccc(NC(=O)c2cccnc2Nc2ccc3cn[nH]c3c2)cc1NCCN1CCOCC1 [Example 116, N-[4-tert-Butyl-3-(2-morpholin-4-yl-ethylamino)-phenyl]-2-(1H-indazol-6-ylamino)-nicotinamide]",< 50 nM
28,"O=C(Nc1ccc(Cl)cc1)c1cccnc1Nc1ccc2cn[nH]c2c1 [Example 3, N-(4-Chlorophenyl)[2-(1H-indazol-6-ylamino)(3-pyridyl)]carboxamide]",< 50 nM
29,"CC(C)(C)c1ccc(NC(=O)c2cccnc2Nc2ccc3cn[nH]c3c2)cc1OC[C@@H]1CCCN1 [Example 96, N-[4-tert-Butyl-3-(pyrrolidin-2-ylmethoxy)-phenyl]-2-(1H-indazol-6-ylamino)-nicotinamide]",< 50 nM
30,"CC1(C)CNc2cc(NC(=O)c3cccnc3Nc3ccc4cn[nH]c4c3)ccc2O1 [Example 101, N-(2,2-Dimethyl-3,4-dihydro-2H-benzo[1,4]oxazin-6-yl)-2-(1H-indazol-6-ylamino)-nicotinamide]",< 50 nM

# — patent US7102009B2, “Substituted amine derivatives and methods of use” (Amgen Inc., priority 2001, dated 2006)
